Measurements as given in ChEMBL document CHEMBL1141681, “Bradykinin B1 receptor antagonists: an alpha-hydroxy amide with an improved metabolism profile” (Bioorg Med Chem Lett, 2008).

Key:
MDR1 (human) = assay: (§1) Apparent permeability across pig L-MDR1 cells overexpressing human MDR1 at 5 uM after 3 hrs by LC/MS/MS analysis; type: ADME, cell-based, Sus scrofa; details: LLC-PK1
[1] = Clearance in mongrel dog at 3 mg/kg, po and 1 mg/kg, iv; type: ADME, organism-based, Canis lupus familiaris; details: in vivo
B1 bradykinin receptor = target: T1, B1 bradykinin receptor (Homo sapiens, UniProt P46663); assay: Displacement of [3H]des-arg10leu9kallidin from human bradykinin B1 receptor expressed in CHO cells by Wallac beta-plate scintillation counting; type: cell-based
T1 sequence (P46663 whole entry): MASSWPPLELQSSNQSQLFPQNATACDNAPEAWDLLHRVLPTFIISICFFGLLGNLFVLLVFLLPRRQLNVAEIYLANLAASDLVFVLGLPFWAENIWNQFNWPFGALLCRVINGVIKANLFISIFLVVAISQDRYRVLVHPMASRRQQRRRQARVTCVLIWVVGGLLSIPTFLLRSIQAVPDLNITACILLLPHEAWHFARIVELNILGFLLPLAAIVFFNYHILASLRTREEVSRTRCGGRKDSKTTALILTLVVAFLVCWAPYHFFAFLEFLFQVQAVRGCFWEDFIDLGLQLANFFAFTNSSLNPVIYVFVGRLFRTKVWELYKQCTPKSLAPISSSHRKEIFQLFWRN

[2] = (§2) Half life in mongrel dog at 3 mg/kg, po and 1 mg/kg, iv; type: ADME, organism-based, Canis lupus familiaris; details: mongrel, in vivo
[3] = Ratio of permeability from basolateral to apical side to apical to basolateral side in pig L-MDR1 cells overexpressing human MDR1 at 5 uM after 3 hrs by LC/MS/MS analysis; type: ADME, cell-based, Sus scrofa; details: l-mdr1, 3 h
[4] = Ratio of drug level in brain to plasma of african green monkey at 2 mg/kg, iv after 30 mins by LC/MS/MS analysis; type: ADME, organism-based; set-up: dose 2 mg/kg, route intravenous; details: chlorocebus aethiops, brain and plasma
Rattus norvegicus = assay: Ex vivo displacement of [35S]N-{2-[4-(4,5-dihydro-1H-imidazol-2-yl)phenyl]ethyl}-2-[(2R)-1-(2-naphthylsulfonyl)-3-oxo-1,2,3,4-tetrahydroquinoxalin-2-yl]acetamide from human bradykinin B1 receptor expressed in iv dosed Sprague-Dawley rat brain by liquid scintillation counting; type: functional, organism-based
[5] = Half life in Sprague-Dawley rat at 10 mg/kg, po and 2 mg/kg, iv; type: ADME, organism-based; details: in vivo
[6] = Oral bioavailability in mongrel dog at 3 mg/kg; type: ADME, organism-based, Canis lupus familiaris; details: in vivo
[7] = Clearance in Sprague-Dawley rat at 10 mg/kg, po and 2 mg/kg, iv; type: ADME, organism-based; details: in vivo
[8] = Oral bioavailability in Sprague-Dawley rat at 10 mg/kg; type: ADME, organism-based; details: in vivo
Canis familiaris = assay: as §2; type: ADME, organism-based, Canis lupus familiaris; details: in vivo
[9] = as §1; type: ADME, cell-based, Sus scrofa; details: l-mdr1, 3 h, 5 µM, 3 h

Row | Papp at 3 h, 5 µM (MDR1 (human)) [×10⁻⁶ cm/s] | clearance [1] [mL/min/kg] | Ki (B1 bradykinin receptor) [nM] | half-life [2] [h] | Ratio [3] | Kp at 0.5 h [4] | Ki (Rattus norvegicus) [nM] | half-life [5] [h] | bioavailability [6] [%] | clearance [7] [mL/min/kg] | bioavailability [8] [%] | t1/2 (Canis familiaris) [h] | Ratio ([3]; 3 h) | Papp [9] [×10⁻⁶ cm/s] | SMILES
1 | 27 | 0.5 |  |  |  |  |  |  |  |  |  |  |  |  | Cc1nc(-c2c(F)cc(Cl)cc2-c2cnc([C@@H](C)NC(=O)[C@@](C)(O)C(F)(F)F)c(F)c2)no1
2 | 22 | 0.5 | 0.69 | 9.9 | 29 |  |  |  |  |  |  |  |  |  | C[C@@H](NC(=O)C1(O)CCS(=O)(=O)C1)c1ncc(-c2cc(Cl)cc(F)c2-c2nnn(C)n2)cc1F (stereo partly specified)
3 | 24 |  | 0.96 |  | 8.2 |  |  |  |  |  |  |  |  |  | C[C@@H](NC(=O)C1(O)CCOCC1)c1ncc(-c2cc(Cl)cc(F)c2-c2nnn(C)n2)cc1F
4 | 31 | 1 | 0.41 | 20.3 | 2 | 0.63 | 140 | 5.6 | 91 | 2.2 | 62 |  |  |  | C[C@@H](NC(=O)C1(O)CCC(F)(F)CC1)c1ncc(-c2cc(Cl)cc(F)c2-c2nnn(C)n2)cc1F
5 | 31 | 0.3 | 0.67 | 9.8 | 16 |  |  |  |  |  |  |  |  |  | C[C@@H](NC(=O)C1(O)CCC(=O)C1)c1ncc(-c2cc(Cl)cc(F)c2-c2nnn(C)n2)cc1F (stereo partly specified)
6 |  |  | 0.8 |  |  |  |  |  |  |  |  |  |  |  | C[C@@H](NC(=O)[C@@](C)(O)C(F)(F)F)c1ncc(-c2cc(Cl)cc(F)c2-c2noc(CO)n2)cc1F
7 | 31 | 3.2 | 0.39 | 5.4 | 2.9 |  |  |  |  |  |  |  |  |  | C[C@@H](NC(=O)C1(O)CCSC1)c1ncc(-c2cc(Cl)cc(F)c2-c2nnn(C)n2)cc1F (stereo partly specified)
8 | 24 | 2.3 | 1.6 | 3.1 | 14.3 |  |  |  |  |  |  |  |  |  | C[C@@H](NC(=O)C1(O)CC[S+]([O-])C1)c1ncc(-c2cc(Cl)cc(F)c2-c2nnn(C)n2)cc1F (stereo partly specified)
9 | 29 | 0.6 | 0.48 | 4.7 | 2.1 |  | 214 | 5.5 |  | 10 | 26 |  |  |  | C[C@@H](NC(=O)C1(O)CCCC1)c1ncc(-c2cc(Cl)cc(F)c2-c2nnn(C)n2)cc1F
10 | 29 | 0.3 | 1 |  |  |  |  |  |  |  |  | 3 | 2.6 |  | CC(NC(=O)C1(O)CCC(F)(F)C1)c1ncc(-c2cc(Cl)cc(F)c2-c2nnn(C)n2)cc1F (stereo in doubt; 11f)
11 |  |  | 0.67 |  |  | 0.55 | 120 | 4.1 | 85 | 5.2 | 96 | 19 | 1.9 | 32 | CC(NC(=O)C1(O)CCC(F)(F)C1)c1ncc(-c2cc(Cl)cc(F)c2-c2nnn(C)n2)cc1F (stereo in doubt; 11g)
